Molecules are shown by their SMILES.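 Grown in 96-well plates, cells were treated for 48 hours with each compound at five concentrations. Insufficient inhibition: endpoint recorded as highest concentration tested. GI50 = concentration required for 50% inhibition of growth.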 Active and inactive are the calls of the source. No stated cut-off is given here; in the data, active = GI50 up to about 1.1 µM and inactive = higher. A value given as a limit tells only on which side of the number the result lay.

Among the test systems are HOP-92; SK-MEL-5; RXF 393; OVCAR-5; SK-OV-3; HOP-62; M14; Hs-578T; SF-539; OVCAR-8; SR; KM12; Malme-3M; RPMI-8226; NCI-H226; SW-620; MOLT-4; SNB-19; NCI/ADR-RES; HCT-15.
Assay in all cases: NCI tumour cell line growth inhibition, 48 h

For `c1ccc2c(c1)CCc1[nH]c3c(c1-2)-c1ccccc1CC3`, the GI50 with HOP-92 was > 100 µM (inactive); in the assay on SK-MEL-5, > 100 µM (inactive); with RXF 393, 45.3 µM (inactive); with OVCAR-5 it was > 100 µM (inactive); in the assay on SK-OV-3, > 100 µM (inactive); with HOP-62 it was 15.1 µM (inactive). Further, the GI50 in the assay on M14 is 35 µM (inactive); in the assay on Hs-578T, 36.9 µM (inactive); with SF-539, > 100 µM (inactive); in the assay on OVCAR-8 it was > 100 µM (inactive); with SR, 38.7 µM (inactive); in the assay on KM12 it was 48.2 µM (inactive). For the same molecule, the GI50 in the assay on Malme-3M is > 100 µM (inactive); in the assay with RPMI-8226, 43.1 µM (inactive); in the assay with NCI-H226, 61.8 µM (inactive); with SW-620, 98.4 µM (inactive); in the assay with MOLT-4, 35.6 µM (inactive); in the assay on SNB-19 it was > 100 µM (inactive). Moreover, the GI50 with NCI/ADR-RES is 98.6 µM (inactive); in the assay on HCT-15, 48.1 µM.

For `C[C@]12C=CC(=O)C=C1CC[C@@H]1[C@@H]2CC[C@]2(C)OC(=O)CC[C@@H]12` [TESTOLACTONE], the GI50 was 402 µM (inactive) in the assay with HOP-92; 429 µM (inactive) in the assay on SK-MEL-5; 437 µM (inactive) with RXF 393; > 489 µM (inactive) with OVCAR-5; > 479 µM (inactive) with SK-OV-3; > 467 µM (inactive) in the assay on HOP-62. Moreover, the GI50 in the assay with M14 is > 500 µM (inactive); with Hs-578T it was 319 µM (inactive); in the assay on SF-539 it was 454 µM (inactive); in the assay with OVCAR-8, > 462 µM (inactive); in the assay on SR it was 318 µM (inactive); with KM12 it was > 500 µM (inactive). In addition, the GI50 with Malme-3M was 480 µM (inactive); with RPMI-8226, 450 µM (inactive); in the assay with NCI-H226 it was 417 µM (inactive); in the assay on SW-620 it was > 486 µM (inactive); in the assay with MOLT-4, 375 µM (inactive); with SNB-19, > 500 µM (inactive). For the same molecule, the GI50 in the assay on NCI/ADR-RES is > 492 µM (inactive); with HCT-15, over 488 µM.

In the case of `C/C=C(\C)C(=O)OC1/C=C(\C)CC/C=C(\C)CC2OC(=O)C(C)(OC(C)=O)C12` (stereo not given), the GI50 in the assay on HOP-92, in the assay with SK-MEL-5, in the assay with RXF 393, with OVCAR-5, with SK-OV-3 and with HOP-62 was > 100 µM (inactive) each time. Besides, the GI50 in the assay on M14, in the assay on Hs-578T, in the assay on SF-539, with OVCAR-8, in the assay with SR and in the assay with KM12 was > 100 µM (inactive) in each case. In addition, the GI50 in the assay on Malme-3M, in the assay with RPMI-8226, with NCI-H226, in the assay on SW-620, with MOLT-4 and in the assay on SNB-19 was > 100 µM (inactive) throughout. The values for the GI50 in the assay on NCI/ADR-RES and in the assay on HCT-15 were > 100 µM (inactive) and over 100 µM, respectively.

As to `O=C(/C=C/c1ccccc1)Nc1ccccc1SCCCCl`, the GI50 is 3.67 µM (inactive) in the assay on HOP-92; 19.3 µM (inactive) with SK-MEL-5; 8.43 µM (inactive) in the assay with RXF 393; 34 µM (inactive) in the assay on OVCAR-5; 8.41 µM (inactive) in the assay on SK-OV-3; 15 µM (inactive) in the assay on HOP-62. The GI50 in the assay on M14 was 20.1 µM (inactive); with Hs-578T, 6.81 µM (inactive); in the assay on SF-539, 8.57 µM (inactive); with OVCAR-8, 16.5 µM (inactive); in the assay with SR it was 9.38 µM (inactive); in the assay on KM12, 3.78 µM (inactive). Also, the GI50 was 10.7 µM (inactive) with Malme-3M; 27.4 µM (inactive) in the assay with RPMI-8226; > 33.7 µM (inactive) with NCI-H226; 6.46 µM (inactive) in the assay with SW-620; 12.7 µM (inactive) in the assay with MOLT-4; 19.1 µM (inactive) in the assay on SNB-19. Further, the GI50 was 3.66 µM (inactive) in the assay with NCI/ADR-RES and 13.4 µM with HCT-15.

Source of the values: ChEMBL document CHEMBL1201862, “PubChem BioAssay data set” (2004).
